In US20240294478A1, “ANTI-CANCER COMPOUNDS AND METHODS OF USE” (YALE UNIVERSITY, priority 2021, published 2024):
Where two headings read alike, the source gives them in different places.

Columns and labels:
LN229 MGMT+/MMR+ cells = test: Short-term cell viability assay, LN229 MGMT+/MMR+; assay type: cell-based; settings: Homo sapiens, read-out: IC50 against LN229 cell lines, MGMT+ MMR+
Experimental: (§1) LN229 MGMT- and MGMT+ cell lines were a gift from B. Kaina (Johannes Gutenberg University Mainz, Mainz, Germany) and grown in Gibco® Duilbecco's Modified Eagle Medium with 10% fetal bovine serum (DMEM). For each compound tested, the relationship between MGMT status and MMR status and compound activity, in terms of IC50 values ([…]), was determined by the following method. On day 1, LN229 isogenic cells of varying MGMT and MMR status were seeded in 96 well format at a density of 2000 cells/well in 100 μL of DMEM media and allowed to adhere overnight. On day 2, a drug master plate was made with 100×the desired maximal concentration of test compound and serially diluted by 2 until 100×the minimal desired concentration, with one DMSO control. Then daughter plates were created with varied concentrations from 3-times the minimal concentration to 3-times the maximal desired concentration. Afterwards, 50 μL of daughter drug plate was added to 100 μL of the seeded cells for a final concentration of 1×in triplicate. Cells were allowed to grow for 6 days. On day 7, the cells were fixed, and stained with Hoechst nuclear dye and imaged to determine growth inhibition.
(§2) For each compound tested, the relationship between MGMT status and MMR status and compound activity, in terms of IC50 values (in μM), was determined. In addition, for each compound, the therapeutic index (TI) was calculated, according to the equation MGMT TI=IC50 (MGMT+/MMR+) divided by IC50 (MGMT−/MMR+). The T1 indicates the efficacy of a compound in treating the targeted MGMT-cancer cells as compared to potential for the same compound to damage, or have adverse effects against, normal cells which are MGMT+cells, The higher the value of the TI, the safer the compound is. […] MMR RI (resistance index)=IC50 (MGMT−/MMR−) divided by IC50 (MGMT−/MMR+). The higher the value of the RI, the less likely that resistance to the compound will develop.
(§3) Short-term Cell Viability Assay. Cells were seeded in 96-well plates at 1000 or 2000 cells/well and allowed to adhere at 23° C. for 60 min and then incubated overnight at 37° C. Cells were treated with indicated concentrations of compounds in triplicate for 4-6 days prior to fixation with 3.7% paraformaldehyde and nuclear staining with 1 μg/mL Hoechst 33342 dye. Cells were imaged on a Cytation 3 imaging reader (BioTek) and quantified using CellProfiler software. For in vitro short-term growth delay experiments, IC50 values were determined from the nonlinear regression equation, [inhibitor] vs normalized response with variable slope.

LN229 MGMT+/MMR− cells = test: Short-term cell viability assay, LN229 MGMT+/MMR- (shRNA targeting MSH2); assay type: cell-based; settings: Homo sapiens
Experimental: as §1, §2, §3

LN229 MGMT−/MMR− cells = test: Short-term cell viability assay, LN229 MGMT-/MMR- (shRNA targeting MSH2); assay type: cell-based, human; settings: for IC50: Homo sapiens, read-out: IC50 against LN229 cell lines, MGMT− MMR−; for activity in MGMT−/MMR− cells, in words: LN229 MGMT−/MMR−
Experimental: as §1
For each compound tested, the relationship between MGMT status and MMR status and compound activity, in terms of IC50 values (in μM), was determined. In addition, for each compound, the therapeutic index (TI) was calculated, according to the equation MGMT TI=IC50 (MGMT+/MMR+) divided by IC50 (MGMT−/MMR+). […] MMR RI (resistance index)=IC50 (MGMT−/MMR−) divided by IC50 (MGMT−/MMR+).
as §3, with “Cells were treated with indicated concentrations of compounds in triplicate for 4-6 days prior to fixation with 3.7% paraformaldehyde and nuclear staining with 1 μg/mL Hoechst 33342 dye.” left out

LN229 MGMT−/MMR+ cells = test: Short-term cell viability assay, LN229 MGMT-/MMR+; assay type: cell-based, human; settings: for IC50: Homo sapiens, read-out: IC50 against LN229 cell lines, MGMT− MMR+
Experimental: as §1, §2, §3

MGMT+ LN229 cells = test: Clonogenic survival assay, LN229 MGMT+ cells; assay type: cell-based, human
Experimental: (§4) In vitro clonogenic survival assays (CSAs) were performed using four isogenic LN229 glioblastoma cell lines.
(§5) Clonogenic Cell Survival Assay. Cells of each line were pretreated with the test drug in culture for 48-72 hours at the specified dilutions. The cells were then immediately seeded in six-well plates in triplicate at three-fold dilutions, ranging from 9000 to 37 cells per well. Depending on colony size, these plates were kept in the incubator for 10 to 14 days. After incubation, colonies were washed in phosphate-buffered saline (PBS) and stained with crystal violet. Colonies were counted by hand. Counts were normalized to plating efficiency of the corresponding treatment condition.

MGMT− LN229 cells = test: Clonogenic survival assay, LN229 MGMT- cells; assay type: cell-based, human
Experimental: as §4, §5

[1] = tested on: four isogenic LN229 glioblastoma cell lines; test: Short-term cell viability assays, statements across the isogenic lines; assay type: cell-based, human; settings: regardless of MMR status
Experimental: as §1, §2, §3

[2] = LN-229, 144 h, Table 1, 6 days growth, Hoechst nuclear count
[3] = LN-229, 144 h, Table 1, 6 days growth, read-out: IC50 against LN229 cell lines, MGMT+ MMR−
[4] = LN-229, 144 h, Table 1, 6 days growth

| SMILES | IC50 (LN229 MGMT+/MMR+ cells; LN-229, Table II) | IC50 (LN229 MGMT+/MMR− cells; LN-229, Table II, read-out: IC50 against LN229 cell lines, MGMT MMR−) | IC50 (LN229 MGMT−/MMR− cells; LN-229, Table II) | activity in MGMT−/MMR− cells, in words (LN229 MGMT−/MMR− cells) | MGMT− RI (resistance index) (LN229 MGMT−/MMR− cells; Table II, IC50 (MGMT−/MMR−) divided by IC50 (MGMT−/MMR+)) | IC50 (LN229 MGMT−/MMR+ cells; LN-229, Table II) | TI / RI, in words (LN229 MGMT−/MMR+ cells; LN229 isogenic lines) | MGMT− TI (therapeutic index) (LN229 MGMT−/MMR+ cells; Table II, IC50 (MGMT+/MMR+) divided by IC50 (MGMT−/MMR+)) | clonogenic survival, activity in MGMT+ cells (MGMT+ LN229 cells; irrespective of MMR status) | clonogenic survival, activity in MMR− cells (MGMT− LN229 cells; isogenic cells lacking MMR) | IC50 (LN229 MGMT+/MMR+ cells; [2]) | IC50 (LN229 MGMT+/MMR− cells; [3]) | IC50 (LN229 MGMT−/MMR− cells; [4]) | IC50 (LN229 MGMT−/MMR+ cells; [4]) | surviving fraction of MGMT+ cells (MGMT+ LN229 cells; at concentrations as high as 1000 μM of E1) | surviving fraction of MGMT+ cells (MGMT+ LN229 cells; at the same concentration (less than 100 μM of E1), regardless of MMR status) | surviving fraction of MGMT− cells (MGMT− LN229 cells; at less than 100 μM of E1, regardless of MMR status) | activity in MGMT+ cells, in words [1] |
| --- | --- | --- | --- | --- | --- | --- | --- | --- | --- | --- | --- | --- | --- | --- | --- | --- | --- | --- |
| O=NN(CCCl)C(=O)NC1CCCCC1 [CCNU, 1-(2-chloroethyl)-3-cyclohexyl-1-nitrosourea, reference compound] | 21.6 ± 3.2 µM | 26.8 ± 7.3 µM | 4.2 ± 0.2 µM | effective against MGMT−/MMR− cells | 0.7 | 6.3 ± 0.3 µM | poor TI | 3.4 | cytotoxic to MGMT+cells | effective in MMR− cells | – | – | – | – | – | – | – | – |
| NC(=O)c1[nH]cnc1/N=N/NCCF [Compound E1, 5-[(1E)-3-(2-fluoroethyl)triaz-1-en-1-yl]-1H-imidazole-4-carboxamide] | – | – | – | exquisite sensitivity | – | – | – | – | – | – | > 100 µM | > 100 µM | 22 ± 1 µM | 24 ± 2 µM | above 0.1 | ~1.0 | dropped sharply | limited activity |
| NC(=O)c1nc[nH]c1/N=N/N(CCF)C(=O)Cc1ccccc1 [Compound E2, (E)-5-(3-(2-fluoroethyl)-3-(2-phenylacetyl)triaz-1-en-1-yl)-1H-imidazole-4-carboxamide] | – | – | – | – | – | – | – | – | – | – | > 100 µM | 72 ± 30 µM | 21 ± 1 µM | 28 ± 1 µM | – | – | – | – |
| CC(=O)N(CCF)/N=N/c1[nH]cnc1C(N)=O [Compound E3, (E)-5-(3-acetyl-3-(2-fluoroethyl)triaz-1-en-1-yl)-1H-imidazole-4-carboxamide] | – | – | – | exquisite sensitivity | – | – | – | – | – | – | > 100 µM | > 100 µM | 46 ± 4 µM | 40 ± 2 µM | – | – | – | limited activity |
